The source of these data is patent US4428938A, “Peptides affecting the immune regulation and a process for their preparation” (Richter Gedeon Vegyeszeti Gyar Rt., priority 1981, dated 1984).

In assay [1] the test system is lymphocytes forming the E-rosette. The assay can be described thus: E-rosette formation, summary statement. Type of assay: cell-based. As for the experimental part: (§1) The active E-rosette test was carried out according to a modified method of Wybran et al [Wybran et al: New Engl. J. Med. 292, 475 (1975)] by the lymphocites of healthy and autoimmune patients (rheumatoid arthritis and systemic lupus erythematosus). To 50 μl of a lymphocyte cell suspension 10^-3 -10^-11 moles/lit. solutions of the test material were added and the mixture was incubated in an atmosphere containing 5.0% of carbon dioxide, at 37° C. for 60 minutes. Thereafter 50 μlit. of a 1% sheep erythrocite suspension were added and the mixture was centrifuged at 1000 r.p.m. for 10 minutes followed by shaking with a modified Gallenkampf-shaker (shaking time: 30 sec, stroke: 8 cm, shaking frequency: 65/min.). The rosettes were fixed with a 0.1% glutaric aldehyde (50 μlit. for each tube, 3 min.). Lymphocytes bonding more than three sheep erythrocite were counted under a microscope and 4×100 cells were evaluated. The separated lymphocytes contain macrophages and polymorphonuclear cells (up to 10%) as an impurity. The number of the cells forming the rosettes was corrected by this value each case.

In assay [2] the test system is plaque forming spleen cells (PFC). The assay can be described thus: Effect on plaque forming spleen cells (PFC). Type of assay: in vivo, H. Wistar rats. The settings on record: for Ratio of the plaque formation produced by treated and untreated (control) animals: new-born animals. As for the experimental part:
(2) The number of the cells producing a specific antibody was determined by the method of Canningham Handbook of Experimental Immunology (editor: D. M. Weir), 2nd Volume, p. 285, Blackwell, Oxford-London (1978). According to this method from the spleen cells of immunized animals, sheep erythrocyte suspension and complement a homogenous suspension was prepared and it was placed into a chamber suitable for forming a single cell layer. Around the spleen cells lytic areolas are formed, the number of which is identical with the number of the cells producing a specific antibody (plaque forming cells, PFC).
The test animals, not later than 12 hour after birth, were given a single i.p. dose of the test material. According to the method (1) three different doses of each substance were tested. On the 7th day after immunization the plaque formation of the spleen cells isolated from the animals was examined.

Assay [3] has as its system antibody production against sheep erythrocyte. The assay can be described thus: Effect on antibody production (Ceglowski's method), agglutination titer. It counts as in vivo, H. Wistar rats. The method, then:
(1) The effect on antibody production was tested according to Ceglowski's method [Ceglowski: Ann. N.Y. Acad. Sci. 249, 343 (1975)]. New-born H. Wistar rats were treated with single 25 μlit. doses of 4×10^-3 -4×10^-7 moles/lit. of the test material (9 animals for each dose) at the latest at the 12th hour after birth. The 14-day animals were then immunized with a sheep erythrocyte suspension administering 0.5 ml. of a 5% sheep erythrocyte suspension each animal intraperitoneally. On the 7th day after immunization the animals were decapitated. The blood of three animals was mixed and from the serum obtained (after centrifuging at 3000 r.p.m. for 10 minutes) the titers for antibodies were determined by the method of Takatsy [Takatsy: Acta Microbiol. Acad. Sci. Hung. 3, 191 (1955)]. The results are expressed in agglutination titers. The titer corresponds to the […] dilution of the serum in which agglutination can be observed.

In assay [4] the test system is lymphocytes of patients suffering from rheumatoid arthritis. The assay can be described thus: Active E-rosette test, lymphocytes of rheumatoid arthritis patients. Type of assay: cell-based, human. The settings on record: for E-rosette forming activity, percentage amount of active lymphocytes: n = 4; for Effect on E-rosette forming activity (in words): 10^-9 moles/lit. As for the experimental part:
as §1

Assay [5] deals with lymphocytes of healthy persons. The assay is described as follows: Active E-rosette test, lymphocytes of healthy persons. Type of assay: cell-based, human. The settings on record: for E-rosette forming activity, percentage amount of active lymphocytes: n = 4. As for the experimental part: as §1
Assay [6] has as its system antibody production against sheep erythrocyte. The assay can be described thus: Effect on antibody production (Ceglowski's method), agglutination titer. It counts as in vivo, H. Wistar rats. The settings on record: single 25 μlit. dose of 4·10^-8 moles/liter to new-born rats.

The structures appear in SMILES notation. Residues, ends and D or L forms follow the SMILES beside them.

On to `N=C(N)NCCC[C@H](N)C(=O)N[C@@H](CCCCN)C(=O)N[C@@H](CC(=O)O)C(=O)O` [Arg--Lys--Asp, Arg-Lys-Asp] (H-Arg-Lys-Asp-OH), for which the “Activity: increases the number of the lymphocytes forming the E-rosette” value in assay [1] was “active”. In addition, the “In vivo effect on plaque forming spleen cells (in words)” value in assay [2] (in lower doses) was “about two-times increase”. The “Ratio of the plaque formation produced by treated and untreated (control) animals” value in assay [2] (single i.p. dose 1.0·10^-4 mmoles) came out at 0.7; in assay [2] (single i.p. dose 1.0·10^-6 mmoles), 2.1; in assay [2] (single i.p. dose 1.0·10^-8 mmoles), 1.8. Further, the “In vivo effect on the antibody production (in words)” value in assay [3] (4.10^-6 moles/lit.) is “significant stimulating activity”. Besides, the “Antibody production, agglutination titer (X ± S.D.)” value is listed as 6.0 ± 0 in assay [3] (single 25 μlit. dose of 4·10^-4 moles/liter to new-born rats), 7.3 ± 0.6 in assay [3] (single 25 μlit. dose of 4·10^-6 moles/liter to new-born rats) and 6.0 ± 1.2 in assay [6]. The “E-rosette forming activity, percentage amount of active lymphocytes” value is recorded as 27.2% in assay [4] (10^-3 moles/liter); 28.6% in assay [4] (10^-5 moles/liter); 28.8% in assay [4] (10^-7 moles/liter); 30.7% in assay [4] (10^-9 moles/liter); 28.4% in assay [4] (10^-11 moles/liter); 29.9% in assay [5] (10^-3 moles/liter). The “E-rosette forming activity, percentage amount of active lymphocytes” value in assay [5] (10^-5 moles/liter) is listed as 34.1%; in assay [5] (10^-7 moles/liter), 41.7%; in assay [5] (10^-9 moles/liter) it was 39.3%; in assay [5] (10^-11 moles/liter), 35.9%. In addition, the entries for the “Effect on E-rosette forming activity (in words)” value in assay [4] and in assay [5] (10^-7 moles/lit.) were “significantly stimulated” and “significant stimulating effect”, respectively.
With `CC(C)[C@H](NC(=O)[C@H](CC(=O)O)NC(=O)[C@H](CCCCN)NC(=O)[C@@H](N)CCCNC(=N)N)C(=O)O` [Arg--Lys--Asp--Val, Arg-Lys-Asp-Val] (H-RKDV-OH), the “Activity: increases the number of the lymphocytes forming the E-rosette” value in assay [1] is reported as “active”. Moreover, the “Ratio of the plaque formation produced by treated and untreated (control) animals” value in assay [2] (single i.p. dose 2.5·10^-3 mmoles) is 0.34; in assay [2] (single i.p. dose 2.5·10^-4 mmoles), 0.8. Besides, the “E-rosette forming activity, percentage amount of active lymphocytes” value was found to be 36.2% in assay [4] (10^-3 moles/liter); 31.5% in assay [4] (10^-5 moles/liter); 34.4% in assay [4] (10^-7 moles/liter); 36.8% in assay [4] (10^-9 moles/liter); 32.6% in assay [4] (10^-11 moles/liter); 41.3% in assay [5] (10^-3 moles/liter). Also, the “E-rosette forming activity, percentage amount of active lymphocytes” value in assay [5] (10^-5 moles/liter) stood at 39.1%; in assay [5] (10^-7 moles/liter), 38.5%; in assay [5] (10^-9 moles/liter), 43.0%; in assay [5] (10^-11 moles/liter) it was 33.7%. The results for the “Effect on E-rosette forming activity (in words)” value in assay [4] and in assay [5] (10^-9 moles/lit.) were “significantly stimulated” and “significant stimulating effect”, respectively.
